Results from patent US20240139327A1, “PRODRUG COMPOUND, PREPARATION METHOD THEREFOR AND USE THEREOF” (MINGHUI PHARMACEUTICAL (HANGZHOU) LIMITED, priority 2021, published 2024).
Like-named read-outs stand apart in the source and are kept apart here.

Assay: Skin-Pampa assay
Type: in vitro ADME
Conditions: for Multiplicity (relative to the prototype drug): Skin-Pampa Pe of prodrug relative to its prototype drug
Protocol: • 1. Hydrate the Skin-Pampa membrane with hydration solution overnight. • 2. Dissolve each compound to be tested in DMSO and prepare 0.5 mL 20 mM solutions of the test compounds. Take 50 uL of solutions of the test compounds to the corresponding 5 mL of donor solution and mix well. • 3. Add 200 μL of the sample solution to the donor (bottom) plate and add 200 μL of acceptor solution into the wells of the acceptor (TOP) plate, and 12 wells are incubated in parallel for each sample. • 4. After 7 hours of incubation, 100 μL of the sample in each of the donor plate and 100 μL of the sample in each of the acceptor plate were sampled and then added with 200 μL of dilution (50% acetonitrile aqueous solution), mixed by vortexing and centrifuged, 200 μL of the supernatant was used for HPLC content detection. • 5. The Skin-Pampa parameters are calculated according to the following equation
[formula] [formula] • Pe—effective permeability coefficient; • VA— the volume of acceptor well (ml); • VD— the volume of donorwell (ml); • A—the filtration area (cm^2); • t—the incubation time (s); • tLAG—the steady-state time (s); • CD(t)—the concentration of the compound in donorwell at t; • CA(t)—the concentration of the compound in acceptor well at t; • CD(0)—the concentration at the compound in donorwell at 0.

[1] = Skin-Pampa, 7 hours of incubation, 12 wells in parallel, HPLC detection
[2] = Skin-Pampa, 7 hours of incubation, 12 wells in parallel, HPLC detection, read-out: Pe (effective permeability coefficient)

Compound	Multiplicity (relative to the prototype drug)	LogPe [1]	Papp at 7 h, 200 µM [2] [×10⁻⁶ cm/s]	Papp at 7 h, 200 µM (PAMPA) [×10⁻⁶ cm/s]	LogPe (PAMPA, 7 h, 200 µM)
CCCCCCCCC(=O)OCn1ccc2c(N(C)[C@H]3CN(C(=O)CC#N)CC[C@H]3C)ncnc21 [Example 7]	7.38-10.08	−5.53 ± 0.08	2.98 ± 0.56	–	–
CCCCC(CC)CCC(=O)OCn1ccc2c(N(C)[C@H]3CN(C(=O)CC#N)CC[C@H]3C)ncnc21 (stereo partly shown) [Example 4]	8.25-8.92	−5.50 ± 0.17	3.13 ± 1.15	–	–
CCCCC(CC)CCC(=O)OCn1ccc2c(-c3cnn(C4(CC#N)CN(C5CCN(C(=O)c6ccnc(C(F)(F)F)c6F)CC5)C4)c3)ncnc21 (stereo not shown) [Example 15]	5.8-19.5	−5.90 ± 0.20	1.26 ± 0.48	–	–
CCCCCCCC(=O)OCn1ccc2c(N(C)[C@H]3CN(C(=O)CC#N)CC[C@H]3C)ncnc21 [Example 1]	4.31-4.46	–	–	1.57 ± 0.5	−5.80 ± 0.11
CCCCC(CC)CCC(=O)OCn1ccc2c(NC3C4CC5CC3CC(O)(C5)C4)c(C(N)=O)cnc21 (stereo not shown) [Example 13]	8.59-15.6	−6.01 ± 0.19	1.07 ± 0.39	–	–
CCCCCCCCCCCC(=O)OCn1ccc2c(N(C)[C@H]3CN(C(=O)CC#N)CC[C@H]3C)ncnc21 [Example 5]	6.88-8.15	−5.56 ± 0.16	2.78 ± 1.13	–	–
CCCCC(CC)CCC(=O)OCn1ccc2c1ncc1ncc([C@H]3CN(C(=O)NCC(F)(F)F)C[C@H]3CC)n12 (stereo partly shown) [Example 14]	6.81-8.83	−6.09 ± 0.19	0.81 ± 0.28	–	–
CCCCCCCCCC(=O)OCn1ccc2c(N(C)[C@H]3CN(C(=O)CC#N)CC[C@H]3C)ncnc21 [Example 8]	5.29-7.67	−5.66 ± 0.08	2.19 ± 0.35	–	–

Further lines, with some results ahead:

Multiplicity (relative to the prototype drug)	LogPe [1]	Papp at 7 h, 200 µM [2] [×10⁻⁶ cm/s]	Compound	Papp at 7 h, 200 µM (PAMPA) [×10⁻⁶ cm/s]	LogPe (PAMPA, 7 h, 200 µM)
–	−6.88 ± 0.34	0.13 ± 0.17	N#CCC1(n2cc(-c3ncnc4[nH]ccc34)cn2)CN(C2CCN(C(=O)c3ccnc(C(F)(F)F)c3F)CC2)C1 [Itacitinib, reference compound]	–	–
–	−5.73 ± 0.06	1.84 ± 0.24	CN1C(C(=O)Nc2ccccn2)=C(O)c2ccccc2S1(=O)=O [Piroxicam, reference compound]	–	–
–	−7.06 ± 0.33	0.11 ± 0.06	NC(=O)c1cnc2[nH]ccc2c1N[C@@H]1[C@@H]2CC3C[C@H]1C[C@@](O)(C3)C2 [Peficitinib, reference compound]	–	–
–	−6.45 ± 0.14	0.36 ± 0.12	C[C@@H]1CCN(C(=O)CC#N)C[C@@H]1N(C)c1ncnc2[nH]ccc12 [Tofacitinib, reference compound]	–	–
–	−6.96 ± 0.20	0.11 ± 0.05	CC[C@@H]1CN(C(=O)NCC(F)(F)F)C[C@@H]1c1cnc2cnc3[nH]ccc3n12 [Upadacitinib, reference compound]	–	–
